Test results published in patent US10745693B2, “Methods of designing programmable inducible promoters” (WISCONSIN ALUMNI RESEARCH FOUNDATION, priority 2017, dated 2020).

System: PmeR
Experiment: Induction assay of PmeR-enriched promoter library driving GFP in E. coli DH10B (flow cytometer)
Format: cell-based, Pseudomonas syringae
Conditions: 300 uM naringenin, over-night growth, E. coli DH10B population repressed by PmeR
From the text: In this example, the allosteric transcription factor was PmeR (repressor) and the inducer molecule was naringenin.
The post in vitro enrichment of polynucleotides (with PmeR protein) was cloned into a vector to drive the expression of a green fluorescent protein using the Golden Gate assembly method. Following the transformation and over-night growth in E. coli DH10B, the fluorescent intensity distribution was profiled using a flow cytometer with 488 nm laser and 510 (25) nm filter. The delivery of the transcription repressor was through a second vector containing constitutively expressing PmeR protein. The fluorescent intensity distribution shift was captured with a flow cytometer after over-night growth. A decrease of overall fluorescent intensity was observed. The induction assay was conducted with the addition of 300 uM naringenin to the previous E. coli population with decreased fluorescence.

SMILES: O=C1C[C@@H](c2ccc(O)cc2)Oc2cc(O)cc(O)c21 [naringenin]
- Change of fluorescent intensity distribution on induction: overall increase in fluorescent intensity
